Experimental findings from patent publication US20090285862A1, “METHODS AND COMPOSITION FOR TREATMENT OF INFLAMMATORY PAIN” (priority 2006, published 2009) are described below.

The test system of data set [1] is male Wistar rats. Put plainly: open field activity monitor, testing for sedation. It counts as in vivo, rat. The note with it: for open field activity monitor, mean: male, Wistar, rat, in vivo, ip, 20 min. As for the experimental part: (§1) Experiments were performed on male Wistar rats (wt 150-220 g). Three series of experiments were performed in an observer blinded fashion with saline (negative) controls and GABAPentin (positive) controls. The investigations were in three stages: • 1. a range of doses of aprepitant (an example of a NK antagonist) given alone and in combination with flupiritine (an example of an inhibitor of neuronal excitation) were tested for sedating effects using the open field activity monitor. In this way it was determined which doses of drug and drug combinations could be used to test for analgesic effects without causing sedation; • 2. a range of doses of aprepitant given alone and in combination with flupirtine were tested for the ability to reverse the allodynia effect causes by intraplantar injection of carrageenan; • 3. a range of doses of aprepitant given alone and in combination with flupirtine were tested for the ability to reverse the allodynia and hyperalgesia caused by streptozotocin-induced diabetic neuropathy.
Individual rats (several rats per treatment group) were placed in an open field activity monitor in which the movement of the rat could be monitored remotely by the frequency and number of interruption of infrared beams directed across the box in a grid. The activity in the monitor was measured for periods of 20 minutes in each rat. This was performed in groups of rats that received (1) control injection of saline, (2) GABAPentin 50 mg/kg as the maximum dose of the drug found previously not to be sedating (drug positive control) administered intraperitoneally, or (3) after pharmacological interventions that involve the administration of aprepitant and flupiritine given at a range of doses alone and in combination. If a rat was sedated by a drug or drug combination, the movements recorded were less. Since rates became habituated to the open field monitor, only one experiment was performed on each rat with this test.
Rats are observed in a commercially available open-field arena in which locomotor and exploratory activity can be monitored in darkness by the breaking of infrared beams arranged in a grid pattern over the entire area (MedAssociates Inc. St. Albans, Vt., USA 05478). The observations are started 5 minutes after the intraperitoneal administration of drugs. The total time of observations in all cases is 20 minutes. In order to avoid habituation to the activity monitor, animals are used once in this test for sedation. Rest time is defined as the time spent with no new infrared beam interruptions.

In data set [2] the test system is carrageenan-induced allodynia. Put plainly: carrageenan paw inflammation, reversal of allodynia assessed with Von Frey hairs. The format is in vivo, rat. Conditions: rats, IP, non-sedating doses, drug administered alone. On the procedure: as §1
Inflammation involves the release of a number of substances into the tissues following injury. These substances including prostaglandins, bradykinin, inflammatory peptides such as substance P and calcitonin gene related peptide and also a number of cytokines. […] Nociceptive thresholds were measured in groups of rats prior to the intraplantar injection. […]

The structures appear in SMILES notation. Marks after values point to notes of the source that are not given here.

For the compound `NCC1(CC(=O)O)CCCCC1` [GABAPentin], in data set [1] (rats, intraperitoneally, found previously), the “maximum dose found previously not to be sedating” value worked out at 50 mg/kg.

As to `C[C@@H](O[C@H]1OCCN(Cc2n[nH]c(=O)[nH]2)[C@H]1c1ccc(F)cc1)c1cc(C(F)(F)F)cc(C(F)(F)F)c1` [aprepitant], the “open field activity monitor, mean” value is listed as 869.0 in data set [1] (6.25 mg/kg); 915.0* in data set [1] (12.5 mg/kg); 964.6* in data set [1] (25 mg/kg); 976.6* in data set [1] (50 mg/kg); 1058.2* in data set [1] (100 mg/kg). Also, the “dose causing no sedating effects (upper limit)” value in data set [1] (rats, drug given alone) is listed as at most 6.25 mg/kg. Besides, in data set [2], the “antinociception, reversal of carrageenan-induced allodynia (Von Frey)” value is listed as “neither flupirtine or aprepitant given at non-sedating doses caused any antinociception”.
